The term MIC denotes the least concentration at which growth counts as inhibited.

This experiment deals with Staphylococcus aureus ATCC29213. Kind of experiment: Susceptibility testing (MIC determination), broth microdilution. The format is cell-based. The note with it: Mueller Hinton broth, 96-well plate, overnight incubation at 35° C., read-out: MIC Staph. aureus ATCC-29213. As for the experimental part:
Compounds useful in the method of the invention were investigated for their utility as antimicrobial agents in the following assay. Susceptibility testing (MIC determinations) was performed using the standard broth microdilution methodology precisely as described in the Clinical Laboratory Standards Institute Document M7-A6; Methods for Dilution Antimicrobial Susceptibility Tests for Bacteria That Grow Aerobically; […] To perform the test, a series of 0.1 ml media in a 96-well plate is prepared with Mueller Hinton broth to which various concentrations of the test compound are added. The media are then inoculated with a standardized suspension of the test organism, Staphylococcus aureus ATCC29213. After overnight incubation at 35° C., the tests are examined and the minimal inhibitory concentration (MIC) is determined. MIC is defined as the lowest concentration of an antimicrobial agent that prevents visible growth of a microorganism in the broth microdilution susceptibility test
Background: Dilution methods test growth across graded concentrations, often in twofold steps.

Converted amounts (≈) assume the structure as drawn.

Turning to `O=C(CNc1c(-c2ccc(N3CCCC3)cc2)nc2ccccn12)N1CCC(c2cccc3ccccc23)CC1` [Compound 44], the MIC was found to be 4 µg/mL (≈ 7.55 µM).

For `CCN1CCc2cc(-c3nc4cnccn4c3NCC(=O)N3CCN(c4ccccc4C#N)CC3)ccc21` [Compound 19], the MIC was determined as 4 µg/mL (≈ 7.9 µM).

In the case of `O=C(CNc1c(-c2ccc(N3CCCCC3)nc2)nc2cnccn12)N1CCN(c2c(Cl)cncc2Cl)CC1` [Compound 8], the MIC turned out to be 0.44 µg/mL (≈ 0.777 µM).

As to `Cc1ccccc1C1CCN(C(=O)CNc2c(-c3ccc(N4CCCC4)cc3)nc3ccccn23)CC1` [Compound 43], the MIC stood at 8 µg/mL (≈ 16.2 µM).

On to `O=C(CNc1c(-c2ccc(N3CCCC3)cc2)nc2cnccn12)N1CCN(c2ccncc2Cl)CC1` [Compound 51], for which the MIC was 5 µg/mL (≈ 9.67 µM).

For the compound `CC(C)c1ccc(-c2nc3cnccn3c2NCC(=O)N2CCN(c3c(Cl)cccc3Cl)CC2)cc1` [Compound 65], the MIC was determined as 1 µg/mL (≈ 1.91 µM).

For `Cc1cccc(C)c1N1CCN(C(=O)CNc2c(-c3ccc(N4CCCC4)cc3)nc3ccccn23)CC1` [Compound 37], the MIC is 0.5 µg/mL (≈ 0.983 µM).

As to `CN(C)c1ccc(-c2nc3ccccn3c2NCC(=O)N2CCN(c3ccccc3Cl)CC2)cc1` [Compound 31], the MIC was 5 µg/mL (≈ 10.2 µM).

With `Cc1ccc2nc(-c3ccc(N4CCOCC4)cc3)c(NCC(=O)N3CCN(c4c(Cl)cncc4Cl)CC3)n2c1` [Compound 78], the MIC was found to be 0.125 µg/mL (≈ 0.215 µM).

As for `CSc1ccccc1N1CCN(C(=O)CNc2c(-c3ccc(N4CCCC4)cc3)nc3cnccn23)CC1` [Compound 49], the MIC stood at 5 µg/mL (≈ 9.48 µM).

Consider `O=C(CNc1c(-c2ccc(N3CCCC3)cc2)nc2ccccn12)N1CCN(c2c(Cl)cncc2Cl)CC1` [Compound 27], for which the MIC was 0.06 µg/mL (≈ 0.109 µM).

As to `O=C(CNc1c(-c2ccc(N3CCSCC3)nc2)nc2cnccn12)N1CCN(c2c(Cl)cncc2Cl)CC1` [Compound 3], the MIC came to 0.125 µg/mL (≈ 0.214 µM).

For the compound `O=C(CNc1c(-c2ccc(N3CCOCC3)cc2)nc2cccc(C(F)(F)F)n12)N1CCN(c2c(Cl)cncc2Cl)CC1` [Compound 80], the MIC came to 0.25 µg/mL (≈ 0.394 µM).

With `CN1CCOc2cc(-c3nc4cnccn4c3NCC(=O)N3CCN(c4c(Cl)cncc4Cl)CC3)ccc21` [Compound 10], the MIC was 0.5 µg/mL (≈ 0.903 µM).

As for `N#Cc1ccccc1N1CCN(C(=O)CNc2c(-c3ccc(N4CCCC4)cc3)nc3ccccn23)CC1` [Compound 35], the MIC was 0.313 µg/mL (≈ 0.619 µM).

For `O=C(CNc1c(-c2ccc(N3CCOCC3)cc2)nc2cccc(Cl)n12)N1CCN(c2c(Cl)cncc2Cl)CC1` [Compound 79], the MIC came to 0.06 µg/mL (≈ 0.0998 µM).

Consider `N#Cc1cccnc1N1CCN(C(=O)CNc2c(-c3ccc(N4CCCC4)cc3)nc3ccccn23)CC1` [Compound 36], for which the MIC amounted to 0.625 µg/mL (≈ 1.23 µM).

With `Cc1cccc(C)c1N1CCN(C(=O)CNc2c(-c3ccc(N(C)C)cc3)nc3ccccn23)CC1` [Compound 56], the MIC is 2 µg/mL (≈ 4.14 µM).

For `Cc1ccc(Cl)cc1N1CCN(C(=O)CNc2c(-c3ccc(N4CCCC4)cc3)nc3cnccn23)CC1` [Compound 50], the minimal inhibitory concentration (MIC) was 2.5 µg/mL (≈ 4.72 µM).

Take `Cc1cccc2nc(-c3ccc(N4CCOCC4)nc3)c(NCC(=O)N3CCN(c4c(Cl)cncc4Cl)CC3)n12` [Compound 5]: the MIC stood at 0.25 µg/mL (≈ 0.43 µM).

In the case of `Cc1ccn2c(NCC(=O)N3CCN(c4c(Cl)cncc4Cl)CC3)c(-c3ccc(N4CCOCC4)cc3)nc2c1` [Compound 74], the MIC is 0.06 µg/mL (≈ 0.103 µM).

`O=C(CNc1c(-c2ccc(N3CCCC3)cc2)nc2cnccn12)N1CCC(c2cccc3ccccc23)CC1` [Compound 52]: the MIC turned out to be 5 µg/mL (≈ 9.42 µM).

On to `O=C(CNc1c(-c2ccc(N3CCOCC3)cc2)nc2ccc(C(F)(F)F)cn12)N1CCN(c2c(Cl)cncc2Cl)CC1` [Compound 77], for which the MIC was found to be 0.06 µg/mL (≈ 0.0946 µM).

For the compound `CC(C)N1CCCc2cc(-c3nc4cnccn4c3NCC(=O)N3CCN(c4c(Cl)cncc4Cl)CC3)ccc21` [Compound 14], the MIC amounted to 1 µg/mL (≈ 1.73 µM).

In the case of `Cc1ccc2nc(-c3ccc(N4CCOCC4)nc3)c(NCC(=O)N3CCN(c4c(Cl)cncc4Cl)CC3)n2c1` [Compound 6], the MIC amounted to 0.25 µg/mL (≈ 0.43 µM).

In the case of `N#Cc1cccnc1N1CCN(C(=O)CNc2c(-c3ccc(N4CCCC4)cc3)nc3cnccn23)CC1` [Compound 47], the MIC turned out to be 0.625 µg/mL (≈ 1.23 µM).

As to `O=C(CNc1c(-c2ccc(N3CCCC3)cc2)nc2cnccn12)N1CCN(c2ccccc2C(F)(F)F)CC1` [Compound 72], the MIC was determined as 8 µg/mL (≈ 14.6 µM).

With `O=C(CNc1c(-c2ccc(N3CCCC3)cc2)nc2ccccn12)N1CCN(c2ccncc2Cl)CC1` [Compound 42], the MIC was 2.5 µg/mL (≈ 4.84 µM).

For the compound `Cc1ccc(Cl)cc1N1CCN(C(=O)CNc2c(-c3ccc(N(C)C)cc3)nc3cnccn23)CC1` [Compound 60], the MIC worked out at 8 µg/mL (≈ 15.9 µM).

`Cn1ccc2cc(-c3nc4cnccn4c3NCC(=O)N3CCN(c4c(Cl)cncc4Cl)CC3)ccc21` [Compound 22]: the MIC came out at 8 µg/mL (≈ 14.9 µM).

As for `O=C(CNc1c(-c2ccc(N3CCCC3)nc2)nc2cnccn12)N1CCN(c2c(Cl)cncc2Cl)CC1` [Compound 9], the MIC stood at 0.46 µg/mL (≈ 0.833 µM).

Consider `CSc1ccccc1N1CCN(C(=O)CNc2c(-c3ccc(N4CCCC4)cc3)nc3ccccn23)CC1` [Compound 39], for which the MIC was determined as 1 µg/mL (≈ 1.9 µM).

Regarding `O=C(CNc1c(-c2ccc(N3CCOCC3)nc2)nc2cnccn12)N1CCN(c2c(Cl)cncc2Cl)CC1` [Compound 7], the MIC was determined as 0.4 µg/mL (≈ 0.704 µM).

Consider `CC(C)N1CCc2cc(-c3nc4cnccn4c3NCC(=O)N3CCN(c4c(Cl)cncc4Cl)CC3)ccc21` [Compound 15], for which the MIC turned out to be 1 µg/mL (≈ 1.77 µM).

`O=C(CNc1c(-c2ccc(N3CCCC3)cc2)nc2ccccn12)N1CCN(c2ccccc2Cl)CC1` [Compound 30]: the MIC stood at 5 µg/mL (≈ 9.71 µM).

With `CN1CCCc2cc(-c3nc4cnccn4c3NCC(=O)N3CCN(c4c(Cl)cncc4Cl)CC3)ccc21` [Compound 13], the MIC is 0.96 µg/mL (≈ 1.74 µM).

With `CCN1CCc2cc(-c3nc4cnccn4c3NCC(=O)N3CCN(c4ncccc4C#N)CC3)ccc21` [Compound 26], the MIC came out at 8 µg/mL (≈ 15.8 µM).

`CCc1ccc(-c2nc3cnccn3c2NCC(=O)N2CCN(c3c(Cl)cccc3Cl)CC2)s1` [Compound 18]: the MIC amounted to 3 µg/mL (≈ 5.82 µM).

Consider `CC(C)c1ccc(-c2nc3cnccn3c2NCC(=O)N2CCN(c3ccccc3C#N)CC2)cc1` [Compound 66], for which the MIC worked out at 8 µg/mL (≈ 16.7 µM).

`O=C(CNc1c(-c2cnc(N3CCCCC3)nc2)nc2cnccn12)N1CCN(c2c(Cl)cncc2Cl)CC1` [Compound 21]: the MIC amounted to 4 µg/mL (≈ 7.05 µM).

Take `CN(C)c1ccc(-c2nc3cnccn3c2NCC(=O)N2CCC(c3cccc4ccccc34)CC2)cc1` [Compound 62]: the MIC was 8 µg/mL (≈ 15.9 µM).

`N#Cc1ccccc1N1CCN(C(=O)CNc2c(-c3ccc(N4CCCC4)cc3)nc3cnccn23)CC1` [Compound 46]: the MIC was found to be 0.313 µg/mL (≈ 0.618 µM).

Take `CN(C)c1ccc(-c2nc3cnccn3c2NCC(=O)N2CCN(c3ncccc3C#N)CC2)cc1` [Compound 59]: the MIC was 6 µg/mL (≈ 12.5 µM).

On to `O=C(CNc1c(-c2ccc(N3CCCC3)cc2)nc2ccccn12)N1CCN(c2c(Cl)cccc2Cl)CC1` [Compound 41], for which the MIC came to 0.313 µg/mL (≈ 0.57 µM).

As for `CCc1ccc(-c2nc3cnccn3c2NCC(=O)N2CCN(c3c(Cl)cccc3Cl)CC2)cc1` [Compound 70], the MIC came to 4 µg/mL (≈ 7.85 µM).

`O=C(CNc1c(-c2ccc(N3CCOCC3)nc2)nc2cccc(Cl)n12)N1CCN(c2c(Cl)cncc2Cl)CC1` [Compound 1]: the minimal inhibitory concentration (MIC) was 0.06 µg/mL (≈ 0.0997 µM).

As for `O=C(CNc1c(-c2ccc(N3CCOCC3)cc2)nc2ccccn12)N1CCN(c2c(Cl)cncc2Cl)CC1` [Compound 73], the minimum inhibitory concentration (MIC) was determined as 0.09 µg/mL (≈ 0.159 µM).

Take `Cc1cccc2nc(-c3ccc(N4CCOCC4)cc3)c(NCC(=O)N3CCN(c4c(Cl)cncc4Cl)CC3)n12` [Compound 76]: the MIC stood at 0.03 µg/mL (≈ 0.0517 µM).

As to `CCCN1CCc2cc(-c3nc4cnccn4c3NCC(=O)N3CCN(c4c(Cl)cncc4Cl)CC3)ccc21` [Compound 17], the MIC was 2 µg/mL (≈ 3.54 µM).

Regarding `CN(C)c1ccc(-c2nc3ccccn3c2NCC(=O)N2CCN(c3c(Cl)cccc3Cl)CC2)cc1` [Compound 57], the MIC was found to be 0.25 µg/mL (≈ 0.478 µM).

Turning to `CCN1CCc2cc(-c3nc4ccccn4c3NCC(=O)N3CCN(c4c(Cl)cncc4Cl)CC3)ccc21` [Compound 2], the MIC turned out to be 0.125 µg/mL (≈ 0.227 µM).

For `COC(=O)c1ccn2c(NCC(=O)N3CCN(c4c(Cl)cncc4Cl)CC3)c(-c3ccc(N4CCOCC4)cc3)nc2c1` [Compound 84], the MIC amounted to 0.125 µg/mL (≈ 0.2 µM).

For the compound `O=C(CNc1c(-c2ccc(N3CCOCC3)cc2)nc2ccc(Cl)cn12)N1CCN(c2c(Cl)cncc2Cl)CC1` [Compound 81], the MIC came out at 0.25 µg/mL (≈ 0.416 µM).

For the compound `O=C(CNc1c(-c2ccc(N3CCOCC3)cc2)nc2cc(C(F)(F)F)ccn12)N1CCN(c2c(Cl)cncc2Cl)CC1` [Compound 82], the MIC was determined as 0.125 µg/mL (≈ 0.197 µM).

In the case of `CCc1ccc(-c2nc3cnccn3c2NCC(=O)N2CCN(c3c(Cl)cccc3Cl)CC2)o1` [Compound 23], the MIC was found to be 8 µg/mL (≈ 16 µM).

For the compound `CN(C)c1ccc(-c2nc3ccccn3c2NCC(=O)N2CCN(c3c(Cl)cncc3Cl)CC2)cc1` [Compound 28], the MIC turned out to be 0.31 µg/mL (≈ 0.591 µM).

As for `CC(C)N1CCCc2cc(-c3nc4cnccn4c3NCC(=O)N3CCN(c4ccccc4C#N)CC3)ccc21` [Compound 24], the MIC amounted to 8 µg/mL (≈ 15 µM).

Turning to `Cc1ccc(Cl)cc1N1CCN(C(=O)CNc2c(-c3ccc(N4CCCC4)cc3)nc3ccccn23)CC1` [Compound 40], the MIC was determined as 1 µg/mL (≈ 1.89 µM).

Take `CCCN1CCCc2cc(-c3nc4cnccn4c3NCC(=O)N3CCN(c4c(Cl)cncc4Cl)CC3)ccc21` [Compound 25]: the MIC was determined as 8 µg/mL (≈ 13.8 µM).

Consider `CC(C)c1ccc(-c2nc3cnccn3c2NCC(=O)N2CCN(c3ncccc3C#N)CC2)cc1` [Compound 67], for which the MIC worked out at 4 µg/mL (≈ 8.32 µM).

With `CN(C)c1ccc(-c2nc3cnccn3c2NCC(=O)N2CCN(c3ccccc3C#N)CC2)cc1` [Compound 58], the MIC came to 6 µg/mL (≈ 12.5 µM).

`CN(C)c1ccc(-c2nc3cnccn3c2NCC(=O)N2CCN(c3c(Cl)cncc3Cl)CC2)cn1` [Compound 12]: the MIC stood at 0.5 µg/mL (≈ 0.95 µM).

Take `CCc1ccc(-c2nc3cnccn3c2NCC(=O)N2CCN(c3c(Cl)cncc3Cl)CC2)s1` [Compound 16]: the MIC was determined as 2 µg/mL (≈ 3.87 µM).
